Data taken from patent publication US6855710B2, “Substituted indolines with an inhibitory effect on various kinases and complexes of CDKs” (Boehringer Ingelheim Pharma KG, priority 1998, dated 2005).

SMILES | melting point
CC(C)(C)OC(=O)NCC(=O)NCc1ccc(N/C(=C2\C(=O)Nc3ccccc32)c2ccccc2)cc1 [Example 57, (Z)-3-[1-(4-tert.butoxycarbonylaminomethylcarbonylaminomethyl-phenylamino)-1-phenyl-methylidene}-2-indolinone] | 218 to 220 °C
CN(c1ccc(N/C(=C2\C(=O)Nc3ccccc32)c2ccccc2)cc1)S(C)(=O)=O [Example 186, (Z)-3-{1-[4-(N-methyl-N-methylsulphonyl-amino)-phenylamino]-1-phenyl-methylidene}-2-indolinone] | 269 °C
CCNC(=O)Nc1ccc(N/C(=C2\C(=O)Nc3ccccc32)c2ccccc2)cc1 [Example 45, (Z)-3-[1-(4-ethylaminocarbonylamino-phenylamino)-1-phenyl-methylidene]-2-indolinone] | 264 to 265 °C
CN(C)CCNC(=O)CN(c1cccc(N/C(=C2\C(=O)Nc3ccccc32)c2ccccc2)c1)S(C)(=O)=O [Example 322, (Z)-3-{1-[3-(N-(2-dimethylamino-ethylaminocarbonylmethyl)-N-methylsulphonyl-amino)-phenylamino]-1-phenyl-methylidene}-2-indolinone] | 179 to 181 °C
CN(C)CCN(C=O)c1ccc(N/C(=C2\C(=O)Nc3ccccc32)c2ccccc2)cc1 [Example 339, (Z)-3-{1-[4-(N-(2-dimethylaminoethyl)-N-formyl-amino)-phenylamino]-1-phenyl-methylidene}-2-indolinone] | 246 to 248 °C
CN(C)CCNc1ccc(N/C(=C2\C(=O)Nc3ccccc32)c2ccccc2)cc1 [Example 338, (Z)-3-{1-[4-(2-dimethylamino-ethylamino)-phenylamino]-1-phenyl-methylidene}-2-indolinone] | 258 to 260 °C
CCOC(=O)CN(c1ccc(N/C(=C2\C(=O)Nc3ccccc32)c2ccccc2)cc1)S(=O)(=O)CC [Example 297, (Z)-3-{1-[4-(N-ethoxycarbonylmethyl-N-ethylsulphonyl-amino)-phenylamino]-1-phenyl-methylidene}-2-indolinone] | 228 to 230 °C
CN(C)CCN(c1cccc(N/C(=C2\C(=O)Nc3ccccc32)c2ccc(CN)cc2)c1)S(C)(=O)=O [Example 422, (Z)-3-{1-[3-(N-(2-dimethylaminoethyl)-N-methylsulphonyl-amino)-phenylamino]-1-(4-aminomethyl-phenyl)-methylidene}-2-indolinone] | 161 °C
CCCCS(=O)(=O)N(CC(=O)N(C)C)c1ccc(N/C(=C2\C(=O)Nc3ccccc32)c2ccccc2)cc1 [Example 306, (Z)-3-{1-[4-(N-(dimethylaminocarbonylmethyl)-N-butylsulphonyl-amino)-phenylamino]-1-phenyl-methylidene}-2-indolinone] | 121 to 123 °C
CCOC(=O)COc1ccc(N/C(=C2\C(=O)Nc3ccccc32)c2ccccc2)cc1 [Example 289, (Z)-3-{1-[4-(ethyloxycarbonylmethyloxy)-phenylamino]-1-phenyl-methylidene}-2-indolinone] | 175 to 177 °C
CN(C(=O)CCN)c1ccc(N/C(=C2\C(=O)Nc3ccccc32)c2ccccc2)cc1.Cl | 97 to 99 °C
CNC(=O)CN(c1cccc(N/C(=C2\C(=O)Nc3ccccc32)c2ccc(CN)cc2)c1)S(C)(=O)=O [Example 418, (Z)-3-{1-[3-(N-methylaminocarbonylmethyl-N-methylsulphonyl-amino)-phenylamino]-1-(4-aminomethyl-phenyl)-methylidene}-2-indolinone] | 164 °C
O=C1Nc2ccc([N+](=O)[O-])cc2/C1=C(/Nc1ccc(CN2CCCCC2)cc1)c1ccc(C(F)(F)F)cc1 [Example 442, (Z)-3-[1-(4-piperidinomethyl-phenylamino)-1-(4-trifluoromethyl-phenyl)-methylidene]-5-nitro-2-indolinone] | 300 to 302 °C
NCc1cccc(N/C(=C2\C(=O)Nc3ccccc32)c2ccccc2)c1 [Example 68, (Z)-3-[1-(3-aminomethyl-phenylamino)-1-phenyl-methylidene]-2-indolinone] | 175 to 185 °C

Second part, the compound after the results:

melting point | SMILES
230 to 235 °C | C[C@@H](N)c1ccc(N/C(=C2\C(=O)Nc3ccc([N+](=O)[O-])cc32)c2ccccc2)cc1.Cl
220 to 223 °C | CCNCc1ccc(N/C(=C2\C(=O)Nc3ccc([N+](=O)[O-])cc32)c2ccccc2)cc1 [Example 160, (Z)-3-[1-(4-ethylaminomethyl-phenylamino)-1-phenyl-methylidene]-5-nitro-2-indolinone]
309 to 311 °C | O=C1Nc2ccc([N+](=O)[O-])cc2/C1=C(/Nc1ccc(CN2CCCCC2)cc1)c1ccc(Cl)cc1 [Example 443, (Z)-3-[1-(4-piperidinomethyl-phenylamino)-1-(4-chlorophenyl)-methylidene]-5-nitro-2-indolinone]
177 to 180 °C (dec.) | O=C(O)CNS(=O)(=O)c1ccc(N/C(=C2\C(=O)Nc3ccc([N+](=O)[O-])cc32)c2ccccc2)cc1 [Example 411, (Z)-3-{1-[4-(carboxymethylaminosulphonyl)-phenylamino]-1-phenyl-methylidene}-5-nitro-2-indolinone]
155 °C | O=C1Nc2ccc([N+](=O)[O-])cc2/C1=C(/Nc1ccc(CN2CCC(O)CC2)cc1)c1ccccc1 [Example 168, (Z)-3-{1-[4-(4-hydroxypiperidinomethyl)-phenylamino]-1-phenyl-methylidene}-5-nitro-2-indolinone]
195 to 198 °C | CN(Cc1ccccc1)Cc1ccc(N/C(=C2\C(=O)Nc3ccc([N+](=O)[O-])cc32)c2ccc(Cn3ccnc3)cc2)cc1 [Example 440, (Z)-3-{1-[4-(N-benzyl-N-methyl-aminomethyl)-phenylamino]-1-[4-(imidazol-1-ylmethyl)-phenyl]-methylidene}-5-nitro-2-indolinone]
306 to 307 °C | CC(=O)NCCc1ccc(N/C(=C2\C(=O)Nc3ccc([N+](=O)[O-])cc32)c2ccccc2)cc1 [Example 129, (Z)-3-{1-[4-(2-acetylamino-ethyl)-phenylamino]-1-phenyl-methylidene}-5-nitro-2-indolinone]
312 to 316 °C | O=C1Nc2ccccc2/C1=C(/Nc1ccc(C(=O)O)cc1)c1ccccc1 [Example 17, (Z)-3-[1-(4-carboxy-phenylamino)-1-phenyl-methylidene]-2-indolinone]
289 to 290 °C | O=C1Nc2ccc([N+](=O)[O-])cc2/C1=C(/Nc1ccc(CN2CC[S+]([O-])CC2)cc1)c1ccccc1 [Example 230, (Z)-3-{1-[4-((1-oxothiomorpholino)-methyl)-phenylamino]-1-phenyl-methylidene}-5-nitro-2-indolinone]
276 °C (dec.) | CC(=O)N(CC(=O)O)c1ccc(N/C(=C2\C(=O)Nc3ccccc32)c2ccccc2)cc1 [Example 353, (Z)-3-{1-[4-(N-carboxymethyl-N-acetyl-amino)-phenylamino]-1-phenyl-methylidene}-2-indolinone]
240 to 242 °C | CCS(=O)(=O)N(CC(=O)O)c1ccc(N/C(=C2\C(=O)Nc3ccccc32)c2ccccc2)cc1 [Example 298, (Z)-3-{1-[4-(N-carboxymethyl-N-ethylsulphonyl-amino)-phenylamino]-1-phenyl-methylidene}-2-indolinone]
277 to 278 °C | CC(=O)NCC(=O)N(C)c1ccc(N/C(=C2\C(=O)Nc3ccc([N+](=O)[O-])cc32)c2ccccc2)cc1 [Example 140, (Z)-3-{1-[4-(N-acetylaminomethylcarbonyl-N-methyl-amino)phenylamino]-1-phenyl-methylidene}-5-nitro-2-indolinone]
204 to 207 °C | CC(C)CN(Cc1ccc(N/C(=C2\C(=O)Nc3ccc([N+](=O)[O-])cc32)c2ccccc2)cc1)CC(C)C [Example 163, (Z)-3-[1-(4-Diisobutylaminomethyl-phenylamino)-1-phenyl-methylidene]-5-nitro-2-indolinone]
335 to 340 °C (dec.) | Cl.NCCc1ccc(N/C(=C2\C(=O)Nc3ccc([N+](=O)[O-])cc32)c2ccccc2)cc1
204 to 206 °C | COC1CCN(Cc2ccc(N/C(=C3\C(=O)Nc4ccc([N+](=O)[O-])cc43)c3ccccc3)cc2)CC1 [Example 171, (Z)-3-{1-[4-(4-methoxypiperidinomethyl)-phenylamino]-1-phenyl-methylidene}-5-nitro-2-indolinone]
276 to 277 °C | O=C1Nc2ccc([N+](=O)[O-])cc2/C1=C(/Nc1ccc(CN2CCSCC2)cc1)c1ccccc1 [Example 229, (Z)-3-[1-(4-thiomorpholinomethyl-phenylamino)-1-phenyl-methylidene]-5-nitro-2-indolinone]
207 to 209 °C | CC(=O)c1ccc(N/C(=C2\C(=O)Nc3ccccc32)c2ccccc2)cc1 [Example 60, (Z)-3-[1-(4-acetylphenylamino)-1-phenyl-methylidene]-2-indolinone]
230 °C | O=C1Nc2ccc([N+](=O)[O-])cc2/C1=C(/Nc1ccc(CN2CCCCC2)cc1)c1ccc(C(=O)O)cc1 [Example 445, (Z)-3-[1-(4-piperidinomethyl-phenylamino)-1-(4-carboxyphenyl)-methylidene]-5-nitro-2-indolinone]
296 to 298 °C | CC(C)C(=O)N(CCN(C)C)c1ccc(N/C(=C2\C(=O)Nc3ccc([N+](=O)[O-])cc32)c2ccccc2)cc1 [Example 330, (Z)-3-{1-[4-(N-(2-dimethylaminoethyl)-N-isopropylcarbonyl-amino)-phenylamino]-1-phenyl-methylidene}-5-nitro-2-indolinone]
242 to 243 °C (dec.) | O=C(O)CNCCc1ccc(N/C(=C2\C(=O)Nc3ccc([N+](=O)[O-])cc32)c2ccccc2)cc1 [Example 258, (Z)-3-{1-[4-(2-carboxymethylamino-ethyl)-phenylamino]-1-phenyl-methylidene}-5-nitro-2-indolinone]
277 to 278 °C | CN(C)C(=O)CN(C)S(=O)(=O)c1ccc(N/C(=C2\C(=O)Nc3ccc([N+](=O)[O-])cc32)c2ccccc2)cc1 [Example 415, (Z)-3-{1-[4-(N-dimethylaminocarbonylmethyl-N-methyl-aminosulphonyl)-phenylamino]-1-phenyl-methylidene}-5-nitro-2-indolinone]
